Converted amounts (≈) assume the structure as drawn. Read-outs that look alike come from different tables or passages of the source.
Experiments:
[1] = system: Propionibacterium acnes ATCC 6919; test: MIC, Agar incorporation test; assay type: cell-based; conditions: for MIC: Cutibacterium acnes, ATCC6919, 24 hours at 37° C.
Method: (§1) 0.3 ml of each dilution step is mixed with 15 ml of nutrient medium while the latter is still liquid. After the nutrient medium has solidified, 10 μl of each of the following organism dilutions of the test strains in 0.85% NaCl solution are spotted onto the agar medium.
(§2) The plates are incubated during 24 hours at 37° C. and then the highest dilution (lowest concentration) of the test substance at which growth is just no longer discernible (corresponds to the MIC) is determined.

[2] = system: Corynebacterium xerosis ATCC 373; test: MIC, Agar incorporation test; assay type: cell-based; conditions: for MIC: Corynebacterium xerosis, ATCC373, 24 hours at 37° C.
Method: as §1, §2

[3] = system: Pseudomonas aeruginosa ATCC 15442; test: MIC, Agar incorporation test; assay type: cell-based; conditions: for MIC: Pseudomonas aeruginosa, ATCC15442, 24 hours at 37° C.
Method: as §1, §2

[4] = system: Staphylococcus aureus ATCC 6538; test: MIC, Agar incorporation test; assay type: cell-based; conditions: for MIC: Staphylococcus aureus, ATCC6538, 24 hours at 37° C.
Method: as §1, §2

[5] = system: Escherischia coli ATCC 10536; test: MIC, Agar incorporation test; assay type: cell-based; conditions: 24 hours at 37° C.
Method: as §1, §2

[6] = system: Staphylococcus epidermidis ATCC 12228; test: MIC, Agar incorporation test; assay type: cell-based; conditions: for MIC: Staphylococcus epidermidis, ATCC12228, 24 hours at 37° C.
Method: as §1, §2

P. gingivalis ATCC3277 = test: MIC vs. oral germs, broth dilution method; assay type: cell-based, Porphyromonas gingivalis; conditions: for MIC: Porphyromonas gingivalis
Source text: (§3) b) Determination of MIC vs. different oral germs in the broth dilution method • Medium: Thioglycolate Bouillon with Hemin and Menadion Columbia Bouillon with Hemin and Menadion für P. gingivalis und P. nigrescens • diluent: the corresponding amount of the substances was pippeted directly • Examples of Test organisms: • Actinobacillus actinomycetemcomitans ATCC43718 • Streptococcus gordonii ATCC10558 • Streptococcus mutans ATCC33402 • Actinomyces viscosus ATCC43146 • Fusobacterium nucleatum subsp. polymorphum ATCC1095 • Porphyromonas gingivalis ATCC3277 • Prevotella nigrescens ATCC33563 • Incubation: 7-10 days at 37° C. under anaerobic conditions, resp. 24 h aerobically with 10% CO2 for Streptococci und A. actinomycetemcomitans • Test solution: Stock solutions in ethanol with 1500 ppm (w/w) are used from all test substances
(§4) Bacteria are taken from blood agar plates with cotton swabs and a suitable O.D. is adjusted in the corresponding medium (McFarland 0.5). This solution is used for F. nucleatum and P. nigrescens in undiluted state, for the other strains a dilution of 1:20 is used. To each 2 ml of active ingredient containing solution 0.1 ml of the bacteria culture is added and incubated as described above.

[7] = system: F. nucleatum subsp. polymorphum ATCC10953; test: MIC vs. oral germs, broth dilution method; assay type: cell-based, Fusobacterium nucleatum subsp. polymorphum; conditions: for MIC: Fusobacterium nucleatum
Source text: as §3, §4

[8] = system: A. actinomycetemcomitans ATCC43718; test: MIC vs. oral germs, broth dilution method; assay type: cell-based, Actinobacillus actinomycetemcomitans; conditions: for MIC: Aggregatibacter actinomycetemcomitans, read-out: MHK (MIC) A. actinomycetemcomitans ATCC43718
Source text: as §3, §4

P. nigrescens ATCC33563 = test: MIC vs. oral germs, broth dilution method; assay type: cell-based, Prevotella nigrescens; conditions: for MIC: Prevotella nigrescens
Source text: as §3, §4

S. gordonii ATCC10558 = test: MIC vs. oral germs, broth dilution method; assay type: cell-based, Streptococcus gordonii; conditions: for MIC: Streptococcus gordonii, read-out: MHK (MIC) S. gordonii ATCC10558
Source text: as §3, §4

A. viscosus ATCC43146 = test: MIC vs. oral germs, broth dilution method; assay type: cell-based, Actinomyces viscosus; conditions: for MIC: Actinomyces viscosus
Source text: as §3, §4

[9] = system: Candida albicans ATCC 10231; test: MIC, Agar incorporation test; assay type: cell-based; conditions: Sabouraud 4% glucose agar, 3 days at 28° C.; for MIC: Candida albicans, ATCC10231, 72 h
Method: 0.3 ml of each dilution step is mixed with 15 ml of nutrient medium while the latter is still liquid. After the nutrient medium has solidified, 10 μl of each of the following organism dilutions of the test strains in 0.85% NaCl solution are spotted onto the agar medium. […]

S. mutans ATCC33402 = test: MIC vs. oral germs, broth dilution method; assay type: cell-based, Streptococcus mutans; conditions: for MIC: Streptococcus mutans, read-out: MHK (MIC) S. mutans ATCC33402
Source text: as §3, §4

[10] = system: Corynebacterium sp. (Corynebacterium xerosis ATCC 373 oder C. minutissimum ATCC 23348); test: Automatic MIC-Screening, broth dilution method; assay type: cell-based; conditions: micro titer plates, 37° C., 24 hours, tested 120 to 3.75 μg/ml
Method: (§5) Determination of the Minimum Inhibitory Concentration (MIC Value)
(§6) 8 μl of each dilution step is mixed with 192 μl of nutrient medium in micro titer plates. The plates are incubated at 37° C. for 24 hours and then the highest dilution (lowest concentration) of the test substance at which growth is just no longer discernible is determined (corresponds to the MIC).

[11] = system: Actinomyces viscosus ATCC 43146; test: Automatic MIC-Screening, broth dilution method; assay type: cell-based; conditions: micro titer plates, 37° C., 24 hours, tested 120 to 3.75 μg/ml
Method: as §5, §6

[12] = system: Staphylococcus aureus ATCC 6538; test: Automatic MIC-Screening, broth dilution method; assay type: cell-based; conditions: micro titer plates, 37° C., 24 hours, tested 120 to 3.75 μg/ml
Method: as §5, §6

[13] = system: Klebsiella pneumoniae ATCC 4352; test: MIC, Agar incorporation test; assay type: cell-based; conditions: for MIC: Klebsiella pneumoniae, ATCC4352, 24 hours at 37° C.
Method: as §1, §2

[14] = system: Aspergillus niger ATCC 6275; test: MIC, Agar incorporation test; assay type: cell-based; conditions: for MIC: Aspergillus niger, ATCC6275
Method: as §1, §2

[15] = system: C. minutissimum ATCC 23348; test: MIC, Agar incorporation test; assay type: cell-based; conditions: for MIC: Corynebacterium minutissimum, ATCC23348, 24 hours at 37° C.
Method: as §1, §2

[16] = system: Proteus vulgaris ATCC 6896; test: MIC, Agar incorporation test; assay type: cell-based; conditions: for MIC: Proteus vulgaris, ATCC6896, 24 hours at 37° C.
Method: as §1, §2

[17] = system: Salmonella choleraesuis ATCC 9184; test: MIC, Agar incorporation test; assay type: cell-based; conditions: 24 hours at 37° C.
[18] = ATCC3277, read-out: MHK (MIC) P. gingivalis ATCC3277
[19] = ATCC10953, read-out: MHK (MIC) F. nucleatum subsp. polymorphum ATCC10953
[20] = ATCC33563, read-out: MHK (MIC) P. nigrescens ATCC33563
[21] = ATCC43146, read-out: MHK (MIC) A. viscosus ATCC43146
[22] = broth dilution, Columbia Bouillon with Hemin and Menadion, 7-10 days at 37° C., anaerobic
[23] = broth dilution, 7-10 days at 37° C., anaerobic
[24] = broth dilution, 24 h aerobically with 10% CO2, 37° C.

Compound	MIC [1] [µg/mL]	MIC [2] [µg/mL]	MIC [3] [µg/mL]	MIC [4] [µg/mL]	MIC [5] [µg/mL]	MIC [6] [µg/mL]	MIC (P. gingivalis ATCC3277; [18]) [µg/mL]	MIC [7, 19] [µg/mL]	MIC ([8]; ATCC43718, 24 h) [µg/mL]	MIC (P. nigrescens ATCC33563; [20]) [µg/mL]	MIC (S. gordonii ATCC10558; ATCC10558, 24 h) [µg/mL]	MIC (A. viscosus ATCC43146; [21]) [µg/mL]	MIC [9] [µg/mL]	MIC (S. mutans ATCC33402; ATCC33402, 24 h) [µg/mL]	MIK (MIC) Corynebacterium sp. [10] [μγ/ml]	MIK (MIC) A. viscosus [11] [μγ/ml]	MIK (MIC) S. aureus [12] [μγ/ml]	MIC [13] [µg/mL]	MIC [14] [µg/mL]	MIC [15] [µg/mL]	also measured
CCCCC(CC)COC(=O)C(C#N)=C(O)c1ccc(-c2ccccc2)cc1 (stereo not shown) [(101e), 3-biphenyl-4-yl-2-cyano-3-hydroxy-acrylic acid 2-ethyl-hexylester]	0.94 (≈ 2.49 µM)	1.9 (≈ 5.03 µM)	> 500	1.9 (≈ 5.03 µM)	> 500	1.9 (≈ 5.03 µM)	15 (≈ 39.7 µM)	> 15	> 15	> 15	< 0.94	< 0.94	> 500	< 0.94	–	–	–	–	–	–	–
CCCCCCCCOC(=O)/C(C#N)=C(\O)c1ccc(-c2ccc(/C(O)=C(\C#N)C(=O)OCCCCCCCC)cc2)cc1 [(102a)]	–	–	–	–	–	–	–	–	–	–	–	–	–	–	>120	<3.75	<3.75	–	–	–	MIC (P. gingivalis ATCC3277; ATCC3277, broth dilution, Columbia Bouillon with Hemin and Menadion, 7-10 days at 37° C., anaerobic, read-out: MHK (MIC) P. gingivalis ATCC3277): > 15 µg/mL; MIC ([7]; ATCC10953, broth dilution, 7-10 days at 37° C., anaerobic, read-out: MHK (MIC) F. nucleatum subsp. polymorphum ATCC10953): ≥ 15 µg/mL; MIC ([8]; ATCC43718, broth dilution, 24 h aerobically with 10% CO2, 37° C.): > 15 µg/mL; MIC (P. nigrescens ATCC33563; ATCC33563, broth dilution, Columbia Bouillon with Hemin and Menadion, 7-10 days at 37° C., anaerobic, read-out: MHK (MIC) P. nigrescens ATCC33563): > 15 µg/mL; MIC (S. gordonii ATCC10558; ATCC10558, broth dilution, 24 h aerobically with 10% CO2, 37° C.): 15 µg/mL (≈ 25 µM); MIC (A. viscosus ATCC43146; ATCC43146, broth dilution, 7-10 days at 37° C., anaerobic, read-out: MHK (MIC) A. viscosus ATCC43146): 7.5 µg/mL (≈ 12.5 µM); MIC (S. mutans ATCC33402; ATCC33402, broth dilution, 24 h aerobically with 10% CO2, 37° C.): > 15 µg/mL
CCCCOC(=O)/C(C#N)=C(\O)c1ccc(-c2ccccc2)cc1 [(101b), 3-biphenyl-4-yl-2-cyano-3-hydroxy-acrylic acid butylester]	12.5 (≈ 38.9 µM)	3.13 (≈ 9.74 µM)	> 100	6.25 (≈ 19.4 µM)	> 100	6.25 (≈ 19.4 µM)	3.75 (≈ 11.7 µM)	≤ 0.94	15 (≈ 46.7 µM)	> 15	3.75 (≈ 11.7 µM)	3.75 (≈ 11.7 µM)	> 100	5.63 (≈ 17.5 µM)	15	7.5	7.5	> 100	> 100	12.5 (≈ 38.9 µM)	MIC [16]: > 100 µg/mL
CCCCCCCCOC(=O)/C(C#N)=C(\O)c1ccc(-c2ccccc2)cc1 [(101d), 3-biphenyl-4-yl-2-cyano-3-hydroxy-acrylic acid octylester]	6.25 (≈ 16.6 µM)	< 1.56	> 400	< 1.56	> 400	< 1.56	7.5 (≈ 19.9 µM)	15 (≈ 39.7 µM)	≥ 15	> 15	≤ 0.94	≤ 0.94	> 400	≤ 0.94	<3.75	<3.75	<3.75	> 400	> 400	< 1.56	MIC [16]: > 400 µg/mL
CC(C)COC(=O)/C(C#N)=C(\O)c1ccc(-c2ccccc2)cc1 [(101c), 3-biphenyl-4-yl-2-cyano-3-hydroxy-acrylic acid isobutylester]	12.5 (≈ 38.9 µM)	3.13 (≈ 9.74 µM)	> 50	12.5 (≈ 38.9 µM)	> 50	6.25 (≈ 19.4 µM)	7.5 (≈ 23.3 µM)	7.5 (≈ 23.3 µM)	15 (≈ 46.7 µM)	> 15	3.75 (≈ 11.7 µM)	7.5 (≈ 23.3 µM)	> 50	5.63 (≈ 17.5 µM)	7.5	7.5	7.5	> 50	> 50	12.5 (≈ 38.9 µM)	MIC [16]: > 50 µg/mL
CCCCC(CC)COC(=O)C(C#N)=C(O)c1ccc(-c2ccc(C(O)=C(C#N)C(=O)OCC(CC)CCCC)cc2)cc1 (stereo not shown) [(102b)]	–	–	–	–	–	–	–	–	–	–	–	–	–	–	–	–	–	–	–	–	MIC Klebsiella pneumoniae ATCC 4352 ([13]; 24 hours at 37° C.): >400 ppm; MIC Propionibacterium acnes ATCC 6919 ([1]; 24 hours at 37° C.): <1.56 ppm; MIC Corynebacterium xerosis ATCC 373 ([2]; 24 hours at 37° C.): <1.56 ppm; MIC Pseudomonas aeruginosa ATCC 15442 ([3]; 24 hours at 37° C.): >400 ppm; MIC Staphylococcus aureus ATCC 6538 ([4]; 24 hours at 37° C.): 100 ppm; MIC Escherischia coli ATCC 10536 [5]: >400 ppm; MIC Staphylococcus epidermidis ATCC 12228 ([6]; 24 hours at 37° C.): 25 ppm; MIC Aspergillus niger ATCC 6275 [14]: >400 ppm; MIC C. minutissimum ATCC 23348 ([15]; 24 hours at 37° C.): 50 ppm; MIC Proteus vulgaris ATCC 6896 ([16]; 24 hours at 37° C.): >400 ppm; MHK (MIC) P. gingivalis ATCC3277 (P. gingivalis ATCC3277; [22]): >15 ppm; MHK (MIC) F. nucleatum subsp. polymorphum ATCC10953 [7, 23]: >15 ppm; MHK (MIC) A. actinomycetemcomitans ATCC43718 [8, 24]: >15 ppm; MHK (MIC) P. nigrescens ATCC33563 (P. nigrescens ATCC33563; [22]): >15 ppm; MHK (MIC) S. gordonii ATCC10558 (S. gordonii ATCC10558; [24]): 15 ppm; MHK (MIC) A. viscosus ATCC43146 (A. viscosus ATCC43146; [23]): 7.5 ppm; MIC Candida albicans ATCC 10231 [9]: >400 ppm; MHK (MIC) S. mutans ATCC33402 (S. mutans ATCC33402; [24]): >15 ppm; MIC Salmonella choleraesuis ATCC 9184 [17]: >400 ppm
